Earlier results in patent publication US12251395B2, “RNAS for complement inhibition” (Apellis Pharmaceuticals, Inc., priority 2019, dated 2025).
Bridges are numbered along the chain shown (N, C = ends). [ ]: non-standard residue; d: D form. Trp(5-F) = N[C@@H](Cc1c[nH]c2ccc(F)cc12)C(=O)O; Trp(5-Me) = Cc1ccc2[nH]cc(C[C@H](N)C(=O)O)c2c1; Trp(6-F) = N[C@@H](Cc1c[nH]c2cc(F)ccc12)C(=O)O; Bpa = N[C@@H](Cc1ccc(C(=O)c2ccccc2)cc1)C(=O)O; 1Nal = N[C@@H](Cc1cccc2ccccc12)C(=O)O; 2Nal = N[C@@H](Cc1ccc2ccccc2c1)C(=O)O; Igl = N[C@H](C(=O)O)C1Cc2ccccc2C1

Test system: complement activation
Settings: relative to compstatin amidated at the C-terminus; published data

Compound	Activity over corn statin [xmore]
Ac-ICV(1-Nal)QDWGAHRCT-COOH (Ac-ICV[1Nal]QDWGAHRCT-OH; disulfide 2-12 (inferred)) [Ac V4(1-Nal)/H9A -OH]	30
Ac-ICV(2-IgI)QDWGAHRCT-CONH2 (Ac-ICV[Igl]QDWGAHRCT-NH2; disulfide 2-12 (inferred)) [Ac-V42IgI/H9A]	39
Ac-ICV(2-IgI)QDWGAHRCT-COOH (Ac-ICV[Igl]QDWGAHRCT-OH; disulfide 2-12 (inferred)) [Ac-V42IgI/H9A -OH]	37
Ac-ICV(2-Nal)QDWGAHRCT-CONH2 (Ac-ICV[2Nal]QDWGAHRCT-NH2; disulfide 2-12 (inferred)) [Ac-V4(2-Nal)/H9A]	99
Ac-ICV(2-Nal)QDWGAHRCT-COOH (Ac-ICV[2Nal]QDWGAHRCT-OH; disulfide 2-12 (inferred)) [Ac V4(2-Nal)/H9A -OH]	38
Ac-ICV(5-methyl-W)QDWGAHRCT-CONH2 (Ac-ICV[Trp(5-Me)]QDWGAHRCT-NH2; disulfide 2-12 (inferred)) [Ac-V4(5-MeW)/H9A]	67
Ac-ICV(5fW)QDWGAHRCT-CONH2 (Ac-ICV[Trp(5-F)]QDWGAHRCT-NH2; disulfide 2-12 (inferred)) [Ac-V4(5fW)/H9A]	31
Ac-ICV(Bpa)QDWGAHRCT-CONH2 (Ac-ICV[Bpa]QDWGAHRCT-NH2; disulfide 2-12 (inferred)) [Ac-V4(Bpa)/H9A]	86
Ac-ICV(Bpa)QDWGAHRCT-COOH (Ac-ICV[Bpa]QDWGAHRCT-OH; disulfide 2-12 (inferred)) [Ac-V4(Bpa)/H9A -OH]	49
Ac-ICVWQD(5fW)GAHRCT-CONH2 (Ac-ICVWQD[Trp(5-F)]GAHRCT-NH2; disulfide 2-12 (inferred)) [Ac-V4W/W7(5fW)/H9A]	121
Ac-ICVWQDWGAHRCT-CONH2 (Ac-ICVWQDWGAHRCT-NH2; disulfide 2-12 (inferred)) [Ac-V4W/H9A]	45
Ac-ICVWQDWGAHRCdT-COOH [Ac-V4W/H9A/T13dT -OH]	55
Ac-ICVYQDWGAHRCT-CONH2 [Ac-V4Y/H9A]	14
Ac-ICWQDWGHHRCT-NH2 (cysteine pairing not given here) [Ac-compstatin]	3
H-GICV(5fW)QD(5fW)GAHRCTN-COOH (H-GICV[Trp(5-F)]QD[Trp(5-F)]GAHRCTN-OH; disulfide 3-13 (inferred)) [G/V4(5f-W)/W7(5fW)/H9A+FN-OH]	112
H-GICV(6fW)QD(6fW)GAHRCTN-COOH (H-GICV[Trp(6-F)]QD[Trp(6-F)]GAHRCTN-OH; disulfide 3-13 (inferred)) [+G/V4(6fW)/W7(6fW)H9A+FN-OH]	126

Test system: complement activation
Settings: alternative pathway-mediated erythrocyte lysis assay (WO2004/026328); read-out: IC50 of compstatin

Compound	IC50 [µM]
CC[C@H](C)[C@H](N)C(=O)N[C@H]1CSSC[C@@H](C(=O)N[C@H](C(N)=O)[C@@H](C)O)NC(=O)[C@H](CCCN=C(N)N)NC(=O)[C@H](Cc2cnc[nH]2)NC(=O)[C@H](Cc2cnc[nH]2)NC(=O)CNC(=O)[C@H](Cc2c[nH]c3ccccc23)NC(=O)[C@H](CC(=O)O)NC(=O)[C@H](CCC(N)=O)NC(=O)[C@H](C(C)C)NC(=O)[C@H](C(C)C)NC1=O [Compstatin, H-ICVVQDWGHHRCT-CONH2]	12
